From publication PMC5218480 (PLoS ONE, 2017)

Tested on: MV-4-11 cells
Test: Gene expression microarray analysis (Affymetrix PrimeView) and GSEA
Assay type: cell-based, human
Parameters: RFU PODN (11730768_x_at) / Fold change /veh PODN (11730768_x_at) / RFU LINC00158 (11744669_a_at) / Fold change /veh LINC00158 (11744669_a_at) / RFU DUSP10 (11751237_a_at) / Fold change /veh DUSP10 (11751237_a_at) / RFU ID3 (11757404_x_at) / Fold change /veh ID3 (11757404_x_at) / RFU PLEKHG5 (11737974_s_at) / Fold change /veh PLEKHG5 (11737974_s_at) / RFU LRRC4B (11730491_at) / Fold change /veh LRRC4B (11730491_at) / RFU GIMAP4 (11747438_a_at) / Fold change /veh GIMAP4 (11747438_a_at) / RFU KRT8 (11758183_x_at) / Fold change /veh KRT8 (11758183_x_at) / RFU CNN1 (11734310_a_at) / Fold change /veh CNN1 (11734310_a_at) / RFU VPS37D (11726825_at) / Fold change /veh VPS37D (11726825_at) / RFU C10orf10 (11716522_x_at) / Fold change /veh C10orf10 (11716522_x_at) / RFU KIR2DL2 /// KIR2DL4 /// KIR2DL5A /// KIR2DL5B /// KIR2DS1 /// KIR2DS2 /// KIR2DS3 /// KIR2DS4 /// KIR3DL3 /// KIR3DL3 /// KIR3DS1 (11738374_at) / Fold change /veh KIR2DL2 /// KIR2DL4 /// KIR2DL5A /// KIR2DL5B /// KIR2DS1 /// KIR2DS2 /// KIR2DS3 /// KIR2DS4 /// KIR3DL3 /// KIR3DL3 /// KIR3DS1 (11738374_at) / RFU C1QL1 (11718748_at) / Fold change /veh C1QL1 (11718748_at) / RFU TMPRSS4 (11747572_a_at) / Fold change /veh TMPRSS4 (11747572_a_at) / RFU HAMP (11756126_x_at) / Fold change /veh HAMP (11756126_x_at) / RFU RNFT2 (11725882_a_at) / Fold change /veh RNFT2 (11725882_a_at) / RFU NR4A2 (11747474_a_at) / Fold change /veh NR4A2 (11747474_a_at) / RFU ABCC12 (11746883_a_at) / Fold change /veh ABCC12 (11746883_a_at) / RFU TMEM136 (11760407_x_at) / Fold change /veh TMEM136 (11760407_x_at) / RFU CLDN22 /// WWC2 (11732394_at) / Fold change /veh CLDN22 /// WWC2 (11732394_at) / RFU HLA-DPB1 (11760878_x_at) / Fold change /veh HLA-DPB1 (11760878_x_at) / RFU SPINT1 (11716480_a_at) / Fold change /veh SPINT1 (11716480_a_at) / RFU GAP43 (11754022_s_at) / Fold change /veh GAP43 (11754022_s_at) / RFU A4GNT (11735810_at) / Fold change /veh A4GNT (11735810_at) / RFU PRB3 (11715151_x_at) / Fold change /veh PRB3 (11715151_x_at) / RFU TUBB4B (11761932_at) / Fold change /veh TUBB4B (11761932_at) / RFU CAPN14 (11732068_a_at) / Fold change /veh CAPN14 (11732068_a_at) / RFU TMCC2 (11721928_a_at) / Fold change /veh TMCC2 (11721928_a_at) / RFU IRGQ (11745062_a_at) / Fold change /veh IRGQ (11745062_a_at) / RFU FAM174B (11720279_a_at) / Fold change /veh FAM174B (11720279_a_at) / RFU TMPRSS4 (11748680_a_at) / Fold change /veh TMPRSS4 (11748680_a_at) / RFU FAM212B (11763350_a_at) / Fold change /veh FAM212B (11763350_a_at) / RFU PLEKHG5 (11743358_a_at) / Fold change /veh PLEKHG5 (11743358_a_at) / RFU ZSCAN30 (11745921_a_at) / Fold change /veh ZSCAN30 (11745921_a_at) / RFU CMKLR1 (11741424_a_at) / Fold change /veh CMKLR1 (11741424_a_at) / RFU LOC101060620 /// MAPK8IP1 (11723275_at) / Fold change /veh LOC101060620 /// MAPK8IP1 (11723275_at) / RFU SPTSSB (11747773_x_at) / Fold change /veh SPTSSB (11747773_x_at) / RFU PRSS12 (11739890_at) / Fold change /veh PRSS12 (11739890_at) / RFU BIN1 (11741810_x_at) / Fold change /veh BIN1 (11741810_x_at) / RFU WNT11 (11732464_a_at) / Fold change /veh WNT11 (11732464_a_at) / RFU C10orf10 (11716521_a_at) / Fold change /veh C10orf10 (11716521_a_at) / RFU C5orf56 (11738089_at) / Fold change /veh C5orf56 (11738089_at) / RFU CYB561 (11721691_x_at) / Fold change /veh CYB561 (11721691_x_at) / RFU ANKRD19P (11752326_a_at) / Fold change /veh ANKRD19P (11752326_a_at) / RFU OR2T12 /// OR2T33 /// OR2T8 (11738714_s_at) / Fold change /veh OR2T12 /// OR2T33 /// OR2T8 (11738714_s_at) / RFU VCAN (11748164_a_at) / Fold change /veh VCAN (11748164_a_at) / RFU JSRP1 (11732532_at) / Fold change /veh JSRP1 (11732532_at) / RFU KRTAP10-11 (11738290_x_at) / Fold change /veh KRTAP10-11 (11738290_x_at) / RFU MYO3A (11730013_a_at) / Fold change /veh MYO3A (11730013_a_at) / RFU EBF3 (11725865_a_at) / Fold change /veh EBF3 (11725865_a_at) / RFU CAMK2N1 (11719241_x_at) / Fold change /veh CAMK2N1 (11719241_x_at) / RFU C5orf56 (11738088_a_at) / Fold change /veh C5orf56 (11738088_a_at) / RFU OLFML3 (11715873_a_at) / Fold change /veh OLFML3 (11715873_a_at) / RFU LOC100653217 /// NTM (11731650_a_at) / Fold change /veh LOC100653217 /// NTM (11731650_a_at) / RFU MAPK11 (11762145_a_at) / Fold change /veh MAPK11 (11762145_a_at) / RFU FIZ1 (11724087_x_at) / Fold change /veh FIZ1 (11724087_x_at) / RFU OASL (11726364_x_at) / Fold change /veh OASL (11726364_x_at) / RFU SOX15 (11748057_x_at) / Fold change /veh SOX15 (11748057_x_at) / RFU CD79A (11719716_a_at) / Fold change /veh CD79A (11719716_a_at) / RFU HIST1H1D (11736915_at) / Fold change /veh HIST1H1D (11736915_at) / RFU CASKIN2 (11723855_a_at) / Fold change /veh CASKIN2 (11723855_a_at) / RFU LOC730098 (11760151_x_at) / Fold change /veh LOC730098 (11760151_x_at) / RFU OR4N2 (11742367_at) / Fold change /veh OR4N2 (11742367_at) / RFU PRRT2 (11749266_a_at) / Fold change /veh PRRT2 (11749266_a_at) / RFU SNX32 (11753110_a_at) / Fold change /veh SNX32 (11753110_a_at) / RFU CDHR5 (11726645_a_at) / Fold change /veh CDHR5 (11726645_a_at) / RFU RCAN1 (11760418_a_at) / Fold change /veh RCAN1 (11760418_a_at) / RFU FAM167A (11723789_a_at) / Fold change /veh FAM167A (11723789_a_at) / RFU FAM26E (11764081_at) / Fold change /veh FAM26E (11764081_at) / RFU ISYNA1 (11749810_s_at) / Fold change /veh ISYNA1 (11749810_s_at) / RFU ACY1 (11761880_at) / Fold change /veh ACY1 (11761880_at) / RFU 11764098_at / Fold change /veh 11764098_at / RFU SAMD14 (11745864_x_at) / Fold change /veh SAMD14 (11745864_x_at) / RFU NPB (11741838_a_at) / Fold change /veh NPB (11741838_a_at) / RFU TMPRSS6 (11731388_a_at) / Fold change /veh TMPRSS6 (11731388_a_at) / RFU KRTAP10-2 (11738614_at) / Fold change /veh KRTAP10-2 (11738614_at) / RFU ARHGAP8 /// PRR5-ARHGAP8 (11727945_x_at) / Fold change /veh ARHGAP8 /// PRR5-ARHGAP8 (11727945_x_at) / RFU KRTAP5-7 /// NADSYN1 (11734609_at) / Fold change /veh KRTAP5-7 /// NADSYN1 (11734609_at) / RFU RASL12 (11751679_a_at) / Fold change /veh RASL12 (11751679_a_at) / RFU CDKN2B (11736163_a_at) / Fold change /veh CDKN2B (11736163_a_at) / RFU PRF1 (11729649_at) / Fold change /veh PRF1 (11729649_at) / RFU, ZNF638 /// ZNF638-IT1 / Fold change vs veh, ZNF638 /// ZNF638-IT1 / RFU, PANK3 / Fold change vs veh, PANK3 / RFU, SH3YL1 / Fold change vs veh, SH3YL1 / RFU, ZEB2 / Fold change vs veh, ZEB2 / RFU, NRIP1 / Fold change vs veh, NRIP1 / RFU, PTTG1IP / Fold change vs veh, PTTG1IP / RFU, CAPN2 / Fold change vs veh, CAPN2 / RFU, MED14 / Fold change vs veh, MED14 / RFU, SNORA58 / Fold change vs veh, SNORA58 / RFU, C1orf63 / Fold change vs veh, C1orf63 / RFU, LRRFIP1 / Fold change vs veh, LRRFIP1 / RFU, NDUFAF7 / Fold change vs veh, NDUFAF7 / RFU, SLC12A2 / Fold change vs veh, SLC12A2 / RFU, IBTK / Fold change vs veh, IBTK / RFU, ESF1 / Fold change vs veh, ESF1 / Fold change vs veh, TMEM50B / RFU, TAOK1 / Fold change vs veh, TAOK1 / RFU, ACBD3 / Fold change vs veh, ACBD3 / RFU, TMA16 / Fold change vs veh, TMA16 / RFU, RWDD3 / Fold change vs veh, RWDD3 / RFU, BCAT1 / Fold change vs veh, BCAT1 / RFU, EDEM3 / Fold change vs veh, EDEM3 / RFU, TMEM33 / Fold change vs veh, TMEM33 / RFU, WDR75 / Fold change vs veh, WDR75 / RFU, AHCTF1 / Fold change vs veh, AHCTF1 / RFU, TFRC / Fold change vs veh, TFRC / RFU, ZDHHC17 / Fold change vs veh, ZDHHC17 / RFU, NOM1 / Fold change vs veh, NOM1 / RFU, ARL8B / Fold change vs veh, ARL8B / RFU, ZBTB11 / Fold change vs veh, ZBTB11 / RFU, TAMM41 / Fold change vs veh, TAMM41 / RFU, KIAA1704 /// LOC100996395 / Fold change vs veh, KIAA1704 /// LOC100996395 / RFU, ING1 / Fold change vs veh, ING1 / RFU, TRMT61B / Fold change vs veh, TRMT61B / RFU, FUBP3 / Fold change vs veh, FUBP3 / RFU, TP53 / Fold change vs veh, TP53 / RFU, TNKS2 / Fold change vs veh, TNKS2 / RFU, ZFP14 / Fold change vs veh, ZFP14 / RFU, ACTR2 / Fold change vs veh, ACTR2 / RFU, PPP3R1 / Fold change vs veh, PPP3R1 / RFU, PIK3R1 / Fold change vs veh, PIK3R1 / RFU, HNRNPA1 / Fold change vs veh, HNRNPA1 / RFU, RNF170 / Fold change vs veh, RNF170 / RFU, ZNF28 / Fold change vs veh, ZNF28 / RFU, RNGTT / Fold change vs veh, RNGTT / RFU, OGT / Fold change vs veh, OGT / RFU, BRD1 / Fold change vs veh, BRD1 / RFU, MARS / Fold change vs veh, MARS / RFU, ZNF655 / Fold change vs veh, ZNF655 / RFU, FAHD1 / Fold change vs veh, FAHD1 / RFU, BDP1 / Fold change vs veh, BDP1 / RFU, LRRCC1 / Fold change vs veh, LRRCC1 / RFU, ARID1A / Fold change vs veh, ARID1A / RFU, ZNF146 / Fold change vs veh, ZNF146 / RFU, ZNF330 / Fold change vs veh, ZNF330 / RFU, GPN3 / Fold change vs veh, GPN3 / RFU, C9orf123 / Fold change vs veh, C9orf123 / RFU, N4BP2L2 / Fold change vs veh, N4BP2L2 / RFU, ARFIP1 / Fold change vs veh, ARFIP1 / RFU, FAM179B / Fold change vs veh, FAM179B / RFU, BCL10 / Fold change vs veh, BCL10 / RFU, UHRF1BP1L / Fold change vs veh, UHRF1BP1L / RFU, BET1 / Fold change vs veh, BET1 / RFU, CNOT2 / Fold change vs veh, CNOT2 / RFU, ZNF268 / Fold change vs veh, ZNF268 / Fold change vs veh, ZNF507 / RFU, DGCR2 / Fold change vs veh, DGCR2 / RFU, WDSUB1 / Fold change vs veh, WDSUB1 / Fold change vs veh, HSP90B1 /// MIR3652 / RFU, ADSS / Fold change vs veh, ADSS / RFU, GK / Fold change vs veh, GK / RFU, ZNF148 / Fold change vs veh, ZNF148 / RFU, TAF9 / Fold change vs veh, TAF9 / RFU, SLC1A5 / Fold change vs veh, SLC1A5 / RFU, SLMO2 / Fold change vs veh, SLMO2 / RFU, ABCC4 / Fold change vs veh, ABCC4 / RFU, LOC101060439 /// RAP1B / Fold change vs veh, LOC101060439 /// RAP1B / RFU, RFX7 / Fold change vs veh, RFX7 / RFU, GTPBP10 / Fold change vs veh, GTPBP10 / RFU, CNEP1R1 / Fold change vs veh, CNEP1R1 / RFU, BIVM-ERCC5 /// ERCC5 / Fold change vs veh, BIVM-ERCC5 /// ERCC5 / RFU, ILF3 / Fold change vs veh, ILF3 / RFU 11762660_at / Fold change /veh 11762660_at / RFU VCAN (11757783_s_at) / Fold change /veh VCAN (11757783_s_at) / RFU DDX43 (11728927_at) / Fold change /veh DDX43 (11728927_at) / RFU KRT8 (11758188_x_at) / Fold change /veh KRT8 (11758188_x_at) / RFU NKD1 (11759106_at) / Fold change /veh NKD1 (11759106_at) / RFU SRD5A1 (11742802_a_at) / Fold change /veh SRD5A1 (11742802_a_at) / RFU TPSAB1 /// TPSB2 (11721975_s_at) / Fold change /veh TPSAB1 /// TPSB2 (11721975_s_at) / RFU GSTM3 (11746129_a_at) / Fold change /veh GSTM3 (11746129_a_at) / RFU IL23R (11737362_x_at) / Fold change /veh IL23R (11737362_x_at) / RFU TMEM51 (11727254_a_at) / Fold change /veh TMEM51 (11727254_a_at) / RFU PIWIL2 (11732686_x_at) / Fold change /veh PIWIL2 (11732686_x_at) / RFU ORM1 (11744905_x_at) / Fold change /veh ORM1 (11744905_x_at) / RFU CCDC152 (11743942_at) / Fold change /veh CCDC152 (11743942_at) / RFU ECM1 (11717891_a_at) / Fold change /veh ECM1 (11717891_a_at) / RFU IL23R (11748794_a_at) / Fold change /veh IL23R (11748794_a_at) / RFU TNFAIP8L3 (11732012_x_at) / Fold change /veh TNFAIP8L3 (11732012_x_at) / RFU MBOAT4 (11741988_at) / Fold change /veh MBOAT4 (11741988_at) / RFU 11764193_at / Fold change /veh 11764193_at / RFU TMEM53 (11763286_at) / Fold change /veh TMEM53 (11763286_at) / RFU MAGEB2 (11727129_at) / Fold change /veh MAGEB2 (11727129_at) / RFU TMEM200A (11744735_a_at) / Fold change /veh TMEM200A (11744735_a_at) / RFU CCDC152 (11751479_a_at) / Fold change /veh CCDC152 (11751479_a_at) / RFU FAM211A (11726209_a_at) / Fold change /veh FAM211A (11726209_a_at) / RFU RGS16 (11746705_a_at) / Fold change /veh RGS16 (11746705_a_at) / RFU VCAN (11755009_s_at) / Fold change /veh VCAN (11755009_s_at) / RFU RHOB (11743442_s_at) / Fold change /veh RHOB (11743442_s_at) / RFU RGS16 (11720943_a_at) / Fold change /veh RGS16 (11720943_a_at) / RFU RGS16 (11720944_at) / Fold change /veh RGS16 (11720944_at) / RFU, VPS4B / Fold change vs veh, VPS4B / RFU, CREB1 / Fold change vs veh, CREB1 / RFU, DNAJC13 / Fold change vs veh, DNAJC13 / RFU, GNAQ / Fold change vs veh, GNAQ / RFU, CDK5R1 / Fold change vs veh, CDK5R1 / RFU, ZRANB3 / Fold change vs veh, ZRANB3 / RFU, CUL4A / Fold change vs veh, CUL4A / RFU, CCNY / Fold change vs veh, CCNY / RFU, UFL1 / Fold change vs veh, UFL1 / RFU, COG3 / Fold change vs veh, COG3 / RFU, DIAPH2 / Fold change vs veh, DIAPH2 / RFU, SKA2 / Fold change vs veh, SKA2 / RFU, AFF3 / Fold change vs veh, AFF3 / RFU, LMF1 / Fold change vs veh, LMF1 / RFU, IPO11 / Fold change vs veh, IPO11 / RFU, DFFB / Fold change vs veh, DFFB / RFU, FOXP1 / Fold change vs veh, FOXP1 / RFU, CARD8 / Fold change vs veh, CARD8 / RFU, STRN3 / Fold change vs veh, STRN3 / RFU, ADK / Fold change vs veh, ADK / RFU, RASSF2 / Fold change vs veh, RASSF2 / RFU, WIPF1 / Fold change vs veh, WIPF1 / RFU, LARP1B / Fold change vs veh, LARP1B / RFU, RASA1 / Fold change vs veh, RASA1 / RFU, RB1 / Fold change vs veh, RB1 / RFU, PPFIA1 / Fold change vs veh, PPFIA1 / RFU, MAT2A / Fold change vs veh, MAT2A / RFU, CCT5 / Fold change vs veh, CCT5 / RFU, WDR92 / Fold change vs veh, WDR92 / RFU, CUX1 / Fold change vs veh, CUX1 / RFU, TTC7A / Fold change vs veh, TTC7A / RFU, TMEM135 / Fold change vs veh, TMEM135 / RFU, DEPTOR / Fold change vs veh, DEPTOR / RFU, CPM / Fold change vs veh, CPM / RFU, DNAJB6 / Fold change vs veh, DNAJB6 / RFU, CACNA2D3 / Fold change vs veh, CACNA2D3 / RFU, DTX4 / Fold change vs veh, DTX4 / RFU, TFCP2 / Fold change vs veh, TFCP2 / RFU, GMCL1 /// GMCL1P1 / Fold change vs veh, GMCL1 /// GMCL1P1 / RFU, AEBP2 / Fold change vs veh, AEBP2 / RFU, SNHG1 /// SNORD22 /// SNORD25 /// SNORD26 /// SNORD27 /// SNORD28 /// SNORD29 /// SNORD31 / Fold change vs veh, SNHG1 /// SNORD22 /// SNORD25 /// SNORD26 /// SNORD27 /// SNORD28 /// SNORD29 /// SNORD31 / Fold change (Aza/veh), C12orf56 (ProbeSet 11735607_a_at) / Fold change (ACY-1035/veh), C12orf56 (ProbeSet 11735607_a_at) / Fold change (Aza/veh), FGFR1OP (ProbeSet 11751329_s_at) / Fold change (ACY-1035/veh), FGFR1OP (ProbeSet 11751329_s_at) / Fold change (Aza/veh), VPS36 (ProbeSet 11739960_a_at) / Fold change (ACY-1035/veh), VPS36 (ProbeSet 11739960_a_at) / RFU SYPL1 (11715823_x_at) / Fold change /veh SYPL1 (11715823_x_at) / RFU IGFBP7 (11715501_s_at) / Fold change /veh IGFBP7 (11715501_s_at) / RFU REEP3 (11722064_at) / Fold change /veh REEP3 (11722064_at) / RFU IGLL1 (11728026_x_at) / Fold change /veh IGLL1 (11728026_x_at): dose or concentration left out as unconfirmed
Conditions: ProbeSet 11732433_s_at; LIST B

**Q.** For `Nc1ncn([C@@H]2O[C@H](CO)[C@@H](O)[C@H]2O)c(=O)n1` [azacitidine], which “RFU, GK” value is on record?
**A.** 260.90 RFU
